Measurements as given in paper PMC6270892, “Penostatin Derivatives, a Novel Kind of Protein Phosphatase 1B Inhibitors Isolated from Solid Cultures of the Entomogenous Fungus Isaria tenuipes” (Molecules, 2014).
Read-outs that look alike come from different tables or passages of the source.

What was measured:
[1] = biological target: T1, PTP1B (Homo sapiens, UniProt P18031); assay: PTP1B inhibition assay (pNPP hydrolysis / Malachite Green); type: biochemical; conditions: for IC50: mean ± SD of three replicates; for selectivity between PTP1B and LAR: PTP1B versus LAR, in words
T1 sequence (P18031 1-435): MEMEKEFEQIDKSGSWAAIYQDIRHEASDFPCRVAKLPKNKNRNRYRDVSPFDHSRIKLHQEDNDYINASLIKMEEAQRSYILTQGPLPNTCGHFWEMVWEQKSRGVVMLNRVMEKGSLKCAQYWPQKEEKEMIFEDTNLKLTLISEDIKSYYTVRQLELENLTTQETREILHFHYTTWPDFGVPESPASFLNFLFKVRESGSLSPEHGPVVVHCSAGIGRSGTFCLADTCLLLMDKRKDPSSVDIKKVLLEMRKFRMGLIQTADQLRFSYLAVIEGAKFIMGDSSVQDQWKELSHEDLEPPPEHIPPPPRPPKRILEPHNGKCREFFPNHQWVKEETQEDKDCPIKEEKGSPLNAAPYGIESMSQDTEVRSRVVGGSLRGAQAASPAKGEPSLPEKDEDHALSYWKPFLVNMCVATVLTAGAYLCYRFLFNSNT
Method: PTP1B activity was measured as the rate of hydrolysis of p-nitrophenyl phosphate (pNPP) in a 96-well microtiter plate format. […] Inhibitors were added in DMSO at 100 times the final concentration. PTP1B activity was measured as the rate of inorganic phosphate released upon hydrolysis of the IR phosphopeptide, TRDIpYETDpYpYRK, using a Malachite Green method. The enzyme activity was estimated by measuring the absorbance at 405 nm with appropriate corrections. Each experiment was performed either in triplicate, and IC50 data were derived from three independent experiments.
(§1) Calculations. PTPase activities, based on a potassium phosphate standard curve, were expressed as nanomoles of phosphate released/min/mg protein. Inhibition of recombinant h-PTP1B by test compounds was calculated as percent of phosphatase control. A four-parameter nonlinear logistic regression of PTPase activities using SAS release 6.08, PROC NLIN, was used for determining IC50 values of the test compounds.

[2] = biological target: LAR (Homo sapiens, UniProt P10586); assay: LAR phosphatase inhibition assay; type: biochemical
Sequence of LAR (P10586 30-1907, species assumed): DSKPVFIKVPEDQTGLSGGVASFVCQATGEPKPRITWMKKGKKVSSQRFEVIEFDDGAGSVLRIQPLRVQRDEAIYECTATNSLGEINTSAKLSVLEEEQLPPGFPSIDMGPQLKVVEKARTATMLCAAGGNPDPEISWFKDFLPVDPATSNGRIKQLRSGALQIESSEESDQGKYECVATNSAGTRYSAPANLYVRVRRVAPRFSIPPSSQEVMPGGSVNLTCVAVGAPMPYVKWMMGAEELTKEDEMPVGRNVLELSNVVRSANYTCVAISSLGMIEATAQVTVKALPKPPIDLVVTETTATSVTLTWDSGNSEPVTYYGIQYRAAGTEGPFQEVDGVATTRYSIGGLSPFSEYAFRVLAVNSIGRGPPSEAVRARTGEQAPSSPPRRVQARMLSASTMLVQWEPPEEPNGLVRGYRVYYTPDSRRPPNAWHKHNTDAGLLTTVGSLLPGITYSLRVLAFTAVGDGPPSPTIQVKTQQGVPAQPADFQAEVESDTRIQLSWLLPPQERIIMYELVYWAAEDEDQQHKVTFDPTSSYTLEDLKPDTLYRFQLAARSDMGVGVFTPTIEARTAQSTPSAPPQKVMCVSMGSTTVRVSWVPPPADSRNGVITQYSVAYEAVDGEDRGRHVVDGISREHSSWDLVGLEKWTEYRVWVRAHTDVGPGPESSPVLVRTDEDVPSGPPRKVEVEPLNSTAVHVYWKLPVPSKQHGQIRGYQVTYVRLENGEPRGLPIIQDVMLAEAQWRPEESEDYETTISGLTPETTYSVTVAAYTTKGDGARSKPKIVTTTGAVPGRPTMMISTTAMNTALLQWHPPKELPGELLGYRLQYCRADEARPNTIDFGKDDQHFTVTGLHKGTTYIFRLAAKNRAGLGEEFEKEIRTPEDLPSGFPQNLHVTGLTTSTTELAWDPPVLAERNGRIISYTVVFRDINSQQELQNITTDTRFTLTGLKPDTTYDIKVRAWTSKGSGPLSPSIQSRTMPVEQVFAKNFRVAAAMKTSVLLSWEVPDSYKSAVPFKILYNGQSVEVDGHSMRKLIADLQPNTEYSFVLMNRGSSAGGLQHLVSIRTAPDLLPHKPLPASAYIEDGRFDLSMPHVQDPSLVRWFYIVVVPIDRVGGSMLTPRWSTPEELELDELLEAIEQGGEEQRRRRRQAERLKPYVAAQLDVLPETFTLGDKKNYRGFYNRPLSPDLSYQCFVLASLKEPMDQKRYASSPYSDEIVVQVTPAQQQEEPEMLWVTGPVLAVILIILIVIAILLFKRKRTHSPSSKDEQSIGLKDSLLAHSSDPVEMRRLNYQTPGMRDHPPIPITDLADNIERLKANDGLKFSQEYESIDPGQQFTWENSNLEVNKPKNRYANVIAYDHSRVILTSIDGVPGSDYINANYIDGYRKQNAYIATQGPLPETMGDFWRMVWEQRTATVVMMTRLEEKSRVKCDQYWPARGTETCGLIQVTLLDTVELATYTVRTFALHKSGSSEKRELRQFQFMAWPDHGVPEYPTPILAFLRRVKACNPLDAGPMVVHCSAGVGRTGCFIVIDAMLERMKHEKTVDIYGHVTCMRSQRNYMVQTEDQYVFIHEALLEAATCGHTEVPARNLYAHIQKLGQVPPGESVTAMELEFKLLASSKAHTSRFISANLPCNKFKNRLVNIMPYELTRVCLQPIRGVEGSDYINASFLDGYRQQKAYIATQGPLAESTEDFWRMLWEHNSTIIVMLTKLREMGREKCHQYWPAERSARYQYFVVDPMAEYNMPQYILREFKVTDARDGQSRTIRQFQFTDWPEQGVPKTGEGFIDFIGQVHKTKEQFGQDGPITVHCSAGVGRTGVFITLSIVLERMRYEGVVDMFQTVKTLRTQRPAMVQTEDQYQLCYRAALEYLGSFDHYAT
Method: PTP1B activity was measured as the rate of hydrolysis of p-nitrophenyl phosphate (pNPP) in a 96-well microtiter plate format. Standard assays were conducted at room temperature in a total volume of 0.2 mL that contained HEPES buffer (50 mM, pH 7.2), NaCl (50 mM), EDTA (1 mM), DTT (1 mM), bovine serum albumin (1 mg/mL), pNPP (at various concentrations, Km) 1.4 (0.03 mM), and PTP1B (35 ng/mL). Sodium orthovanadate was used as the positive control. Inhibitors were added in DMSO at 100 times the final concentration. PTP1B activity was measured as the rate of inorganic phosphate released upon hydrolysis of the IR phosphopeptide, TRDIpYETDpYpYRK, using a Malachite Green method. The enzyme activity was estimated by measuring the absorbance at 405 nm with appropriate corrections. Each experiment was performed either in triplicate, and IC50 data were derived from three independent experiments.
Activities of LAR were measured as described above except that the HEPES buffer (50 mM) was at pH 6.8, and the enzyme was added at a concentration of 10 μg/mL. Activity of calcineurin (from Sigma Chemical Co.) was assayed using 4-methylumbelliferyl phosphate (0.8 mM) as a substrate in an assay mixture that contained Tris-HCl buffer (40 mM, pH 8.6), NaCl (100 mM), CaCl2 (0.5 mM), DTT (0.5 mM), bovine serum albumin (0.1 mg/mL), calmodulin (50 nM), and calcineurin (25 nM). Sodium orthovanadate was used as the positive control. Fluorescence at 450 nm was monitored with excitation at 400 nm. The color was allowed to develop at room temperature for 30 min, and the sample absorbances were determined at 650 nm using a plate reader (Molecular Devices, Sunnyvale, CA, USA). Each experiment was performed either in triplicate, and IC50 data were derived from three independent experiments.
as §1, with “compounds. The reported IC50 values show significant fit to the regression curve (p < 0.05).” for “compounds.”

[3] = tested on: PTP1B; set-up: method as in PMID 20337577; conditions: cited from earlier work
[4] = tested at 50 μg/mL, read-out: LAR inhibition

Row | IC50 [1] | IC50 [2, 4] | selectivity between PTP1B and LAR [1] | IC50 ([2]; mean ± SD of three replicates, read-out: IC50 (μM) LAR) | SMILES | IC50 [3]
1 | 15.9 ± 2.49 µM | > 145 µM | – | – | CCCCCCC/C=C/[C@@H]1O[C@H]2C(=O)C=C3C[C@H](O)C[C@H]3[C@@H]2C=C1C [Compound 3, penostatin A] | –
2 | 12.5 ± 0.9 µM | > 146 µM | significant selectivity | – | CCCCCCC/C=C/[C@@H]1O[C@@]2(O)C(=O)C=C3C=CC[C@H]3[C@@H]2C=C1C [Compound 1, penostatin J] | –
3 | 33.7 ± 7.33 µM | > 145 µM | – | – | CCCCCCC/C=C/[C@@H]1O[C@H]2C(=O)C=C3C[C@@H](O)C[C@H]3[C@@H]2C=C1C [Compound 4, penostatin B] | –
5 | – | – | – | – | Cc1cc(-c2c3ccccc3c(Br)c3sc(C)c(C)c23)cc(C)c1O[C@H](Cc1ccccc1)C(=O)O [ertiprotafib] | 1.6 µM
6 | 0.37 ± 0.05 µM | – | significant selectivity | 53.3 ± 4.06 µM | CCCCCCC/C=C/[C@@H]1O[C@H]2C(=O)C=C3C=CC[C@H]3[C@@H]2C=C1C [Compound 2, penostatin C] | –
